Data on 21 molecules can be found in US12281122B1, “PI3K inhibitors” (Cogent Biosciences, Inc., priority 2023, dated 2025).

Test [1] deals with T47D (PI3Kα-H1047R) cell line. As to the kind of experiment: HTRF phospho-AKT(S473) cell assay in T47D cells. It counts as cell-based, human. As to conditions: Homo sapiens; T47D (PI3Kα-H1047R) cells, HTRF phospho-AKT(S473), 2 hours compound incubation. Put shortly:
(§1)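 T47D: RPMI + 10% FBS + 0.2 units/mL insulin, top 5 μM. SKBR3: McCoy's 5A + 10% FBS, top 10 μM, 70 ng/ml PDGF-BB last 15 min. Both: 12-pt 1:3, 2 h, 37° C, max 0.5% DMSO; HTRF pAKT(S473); IC50.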
Background: In TR-FRET formats the signal depends on donor and acceptor labels being close together.

Test [2] deals with SKBR3 (PI3Kα-Wild Type) cell line. As to the kind of experiment: HTRF phospho-AKT(S473) cell assay in SKBR3 cells. The test is classed as cell-based, human. As to conditions: Homo sapiens, SK-BR-3; SKBR3 (PI3Kα-Wild Type) cells, HTRF phospho-AKT(S473), 2 hours compound incubation, PDGF-BB stimulated. Put shortly: as §1

Some results are limits rather than exact numbers.

What is called IC50 is the concentration that gives 50% inhibition. Take `Cc1cc([C@@H](C)Nc2ccc(Cl)nc2C(=O)NS(C)(=O)=O)c2nc(N3Cc4cn(-c5ccc(C#N)cc5C)nc4C3)n(C)c(=O)c2c1` [Compound 250, (R)-6-chloro-3-((1-(2-(2-(4-cyano-2-methylphenyl)-2,6-dihydropyrrolo[3,4-c]pyrazol-5(4H)-yl)-3,6-dimethyl-4-oxo-3,4-dihydroquinazolin-8-yl)ethyl)amino)-N-(methylsulfonyl) picolinamide]: the IC50 in test [1] is below 250 nM; in test [2], 1000 to 5000 nM.

As for `Cc1cc([C@@H](C)Nc2ccc(Cl)nc2C(=O)NS(C)(=O)=O)c2nc(-c3ccc(N4CCN(C)CC4)nc3)n(C)c(=O)c2c1` [Compound 251], the results for the IC50 in test [1] and in test [2] were below 250 nM and 1000 to 5000 nM, respectively.

On to `Cc1cc([C@@H](C)Nc2ccc(Cl)nc2C(=O)NS(C)(=O)=O)c2nc(N3Cc4cnn(-c5cccnc5C)c4C3)n(C)c(=O)c2c1` [Compound 252, (R)-6-chloro-3-((1-(3,6-dimethyl-2-(1-(2-methylpyridin-3-yl)-4,6-dihydropyrrolo[3,4-c]pyrazol-5(1H)-yl)-4-oxo-3,4-dihydroquinazolin-8-yl)ethyl)amino)-N-(methylsulfonyl) picolinamide], for which the IC50 in test [1] was below 250 nM; in test [2] it was 1000 to 5000 nM.

On to `Cc1cc([C@@H](C)Nc2ccc(Cl)nc2C(=O)NS(C)(=O)=O)c2nc(N3CCC(c4ncn(C)n4)CC3)n(C)c(=O)c2c1` [Compound 253, (R)-6-chloro-3-((1-(3,6-dimethyl-2-(4-(1-methyl-1H-1,2,4-triazol-3-yl)piperidin-1-yl)-4-oxo-3,4-dihydroquinazolin-8-yl)ethyl)amino)-N-(methylsulfonyl) picolinamide], for which the values for the IC50 in test [1] and in test [2] were 250 to 500 nM and 1000 to 5000 nM, respectively.

For `CC(=O)Nc1ccc(C2CCN(c3nc4c([C@@H](C)Nc5ccc(Cl)nc5C(=O)NS(C)(=O)=O)cc(C)cc4c(=O)n3C)CC2)cn1` [Compound 254, (R)-3-((1-(2-(4-(6-acetamidopyridin-3-yl)piperidin-1-yl)-3,6-dimethyl-4-oxo-3,4-dihydroquinazolin-8-yl)ethyl)amino)-6-chloro-N-(methylsulfonyl) picolinamide], the IC50 in test [1] is below 250 nM; in test [2], 1000 to 5000 nM.

For `Cc1cc([C@@H](C)Nc2ccc(Cl)nc2C(=O)NS(C)(=O)=O)c2nc(N3CCC(n4ncc5cc(C#N)ccc54)CC3)n(C)c(=O)c2c1` [Compound 255, (R)-6-chloro-3-((1-(2-(4-(5-cyano-1H-indazol-1-yl)piperidin-1-yl)-3,6-dimethyl-4-oxo-3,4-dihydroquinazolin-8-yl)ethyl)amino)-N-(methylsulfonyl) picolinamide], the IC50 in test [1] is below 250 nM; in test [2] it was 1000 to 5000 nM.

`Cc1cc([C@@H](C)Nc2ccc(Cl)nc2C(=O)NS(C)(=O)=O)c2nc(N3CCN(c4ccn(C)n4)[C@H](C)C3)n(C)c(=O)c2c1` [Compound 256, 6-chloro-3-(((R)-1-(3,6-dimethyl-2-((R)-3-methyl-4-(1-methyl-1H-pyrazol-3-yl)piperazin-1-yl)-4-oxo-3,4-dihydroquinazolin-8-yl)ethyl)amino)-N-(methylsulfonyl) picolinamide]: the IC50 in test [1] was below 250 nM; in test [2], 1000 to 5000 nM.

For `Cc1cc([C@@H](C)Nc2ccc(Cl)nc2C(=O)NS(C)(=O)=O)c2nc(N3CCN(c4cnc(C)nc4)CC3)n(C)c(=O)c2c1` [Compound 257, (R)-6-chloro-3-((1-(3,6-dimethyl-2-(4-(2-methylpyrimidin-5-yl)piperazin-1-yl)-4-oxo-3,4-dihydroquinazolin-8-yl)ethyl)amino)-N-(methylsulfonyl) picolinamide], the results for the IC50 in test [1] and in test [2] were below 250 nM and 1000 to 5000 nM, respectively.

Consider `Cc1cc([C@@H](C)Nc2ccc(Cl)nc2C(=O)NS(C)(=O)=O)c2nc(N3CCC(n4ncc5ccncc54)CC3)n(C)c(=O)c2c1` [Compound 258], for which the IC50 is below 250 nM in test [1] and 1000 to 5000 nM in test [2].

Turning to `CC(=O)N1CCN(c2ncc(-c3nc4c([C@@H](C)Nc5ccc(Cl)nc5C(=O)NS(C)(=O)=O)cc(C)cc4c(=O)n3C)cc2F)CC1` [Compound 259, (R)-3-((1-(2-(6-(4-acetylpiperazin-1-yl)-5-fluoropyridin-3-yl)-3,6-dimethyl-4-oxo-3,4-dihydroquinazolin-8-yl)ethyl)amino)-6-chloro-N-(methylsulfonyl) picolinamide], the IC50 in test [1] was below 250 nM; in test [2], 1000 to 5000 nM.

With `Cc1cc([C@@H](C)Nc2ccc(Cl)nc2C(=O)NS(C)(=O)=O)c2nc(N3CCC(c4ccnc(C)n4)CC3)n(C)c(=O)c2c1` [Compound 260, (R)-6-chloro-3-((1-(3,6-dimethyl-2-(4-(2-methylpyrimidin-4-yl)piperidin-1-yl)-4-oxo-3,4-dihydroquinazolin-8-yl)ethyl)amino)-N-(methylsulfonyl) picolinamide], the IC50 in test [1] is below 250 nM; in test [2], 1000 to 5000 nM.

With `Cc1cc([C@@H](C)Nc2ccc(Cl)nc2C(=O)NS(C)(=O)=O)c2nc(N3CCC(c4cnc(C)nc4)CC3)n(C)c(=O)c2c1` [Compound 261, (R)-6-chloro-3-((1-(3,6-dimethyl-2-(4-(2-methylpyrimidin-5-yl)piperidin-1-yl)-4-oxo-3,4-dihydroquinazolin-8-yl)ethyl)amino)-N-(methylsulfonyl) picolinamide], the results for the IC50 in test [1] and in test [2] were below 250 nM and 1000 to 5000 nM, respectively.

Regarding `Cc1cc([C@@H](C)Nc2ccc(Cl)nc2C(=O)NS(C)(=O)=O)c2nc(N3CCN(c4ncc(C#N)cc4F)CC3)n(C)c(=O)c2c1` [Compound 262, (R)-6-chloro-3-((1-(2-(4-(5-cyano-3-fluoropyridin-2-yl)piperazin-1-yl)-3,6-dimethyl-4-oxo-3,4-dihydroquinazolin-8-yl)ethyl)amino)-N-(methylsulfonyl) picolinamide], the IC50 was below 250 nM in test [1] and 1000 to 5000 nM in test [2].

In the case of `Cc1cc([C@@H](C)Nc2ccc(Cl)nc2C(=O)NS(C)(=O)=O)c2nc(N3CCC(c4ccc(C)nn4)CC3)n(C)c(=O)c2c1` [Compound 264, (R)-6-chloro-3-((1-(3,6-dimethyl-2-(4-(6-methylpyridazin-3-yl)piperidin-1-yl)-4-oxo-3,4-dihydroquinazolin-8-yl)ethyl)amino)-N-(methylsulfonyl) picolinamide], the IC50 in test [1] was below 250 nM; in test [2] it was 1000 to 5000 nM.

As to `Cc1cc([C@@H](C)Nc2ccc(Cl)nc2C(=O)NS(C)(=O)=O)c2nc(N3CCC(Oc4ccn(C)n4)CC3)n(C)c(=O)c2c1` [Compound 265, (R)-6-chloro-3-((1-(3,6-dimethyl-2-(4-((1-methyl-1H-pyrazol-3-yl)oxy)piperidin-1-yl)-4-oxo-3,4-dihydroquinazolin-8-yl)ethyl)amino)-N-(methylsulfonyl) picolinamide], the IC50 in test [1] is below 250 nM; in test [2], 1000 to 5000 nM.

`Cc1cc([C@@H](C)Nc2ccc(Cl)nc2C(=O)NS(C)(=O)=O)c2nc(N3CCC(c4ncc(C#N)cc4C)CC3)n(C)c(=O)c2c1` [Compound 266, (R)-6-chloro-3-((1-(2-(4-(5-cyano-3-methylpyridin-2-yl)piperidin-1-yl)-3,6-dimethyl-4-oxo-3,4-dihydroquinazolin-8-yl)ethyl)amino)-N-(methylsulfonyl) picolinamide]: the IC50 in test [1] is below 250 nM; in test [2], 1000 to 5000 nM.

For the molecule `Cc1cc([C@@H](C)Nc2ccc(Cl)nc2C(=O)NS(C)(=O)=O)c2nc(N3CCC(c4ccn(C5CC5)n4)CC3)n(C)c(=O)c2c1` [Compound 267, (R)-6-chloro-3-((1-(2-(4-(1-cyclopropyl-1H-pyrazol-3-yl)piperidin-1-yl)-3,6-dimethyl-4-oxo-3,4-dihydroquinazolin-8-yl)ethyl)amino)-N-(methylsulfonyl) picolinamide], the figures for the IC50 in test [1] and in test [2] were below 250 nM and 1000 to 5000 nM, respectively.

Regarding `Cc1cc([C@@H](C)Nc2ccc(Cl)nc2C(=O)NS(C)(=O)=O)c2nc(N3CCC(n4c(C)nc5ccccc54)CC3)n(C)c(=O)c2c1` [Compound 268, (R)-6-chloro-3-((1-(3,6-dimethyl-2-(4-(2-methyl-1H-benzo[d]imidazol-1-yl)piperidin-1-yl)-4-oxo-3,4-dihydroquinazolin-8-yl)ethyl)amino)-N-(methylsulfonyl) picolinamide], the results for the IC50 in test [1] and in test [2] were below 250 nM and at least 5000 nM, respectively.

For `Cc1cc([C@@H](C)Nc2ccc(Cl)nc2C(=O)NS(C)(=O)=O)c2nc(N3C4CCC3CN(c3cnn(C)c3)C4)n(C)c(=O)c2c1` [Compound 269, 6-chloro-3-(((1R)-1-(3,6-dimethyl-2-(3-(1-methyl-1H-pyrazol-4-yl)-3,8-diazabicyclo[3.2.1]octan-8-yl)-4-oxo-3,4-dihydroquinazolin-8-yl)ethyl)amino)-N-(methylsulfonyl) picolinamide], the IC50 in test [1] is below 250 nM; in test [2], 1000 to 5000 nM.

For `Cc1cc([C@@H](C)Nc2ccc(Cl)nc2C(=O)NS(C)(=O)=O)c2nc(N3CCC(n4cc(-c5cnc(C)cn5)cn4)CC3)n(C)c(=O)c2c1` [Compound 270, (R)-6-chloro-3-((1-(3,6-dimethyl-2-(4-(4-(5-methylpyrazin-2-yl)-1H-pyrazol-1-yl)piperidin-1-yl)-4-oxo-3,4-dihydroquinazolin-8-yl)ethyl)amino)-N-(methylsulfonyl) picolinamide], the IC50 in test [1] is below 250 nM; in test [2] it was at least 5000 nM.

With `Cc1cc([C@@H](C)Nc2ccc(Cl)nc2C(=O)NS(C)(=O)=O)c2nc(N3CCC(c4ccc(C)nc4)CC3)n(C)c(=O)c2c1` [Compound 271, (R)-6-chloro-3-((1-(3,6-dimethyl-2-(4-(6-methylpyridin-3-yl)piperidin-1-yl)-4-oxo-3,4-dihydroquinazolin-8-yl)ethyl)amino)-N-(methylsulfonyl) picolinamide], the IC50 in test [1] is below 250 nM; in test [2], 1000 to 5000 nM.
